The values below come from ChEMBL document CHEMBL3045272, “Synthesis and fungicidal activities of novel bis(trifluoromethyl)phenyl-based strobilurins” (J Agric Food Chem, 2008).

What all share (type): functional
The test system of test [1] is Blumeria graminis. The test is described as follows: Fungicidal activity against Blumeria graminis infected compound pre-treated wheat plants assessed as disease preventive activity at 3.1 ppm measured after 1 or 2 weeks.
For test [2], the system named is Blumeria graminis. The test is described as follows: Fungicidal activity against Blumeria graminis infected compound pre-treated wheat plants assessed as disease preventive activity at 1.5 ppm measured after 1 or 2 weeks.
Test [3] has as its system Blumeria graminis. The test is described as follows: Fungicidal activity against Blumeria graminis infected compound pre-treated wheat plants assessed as disease preventive activity at 6.2 ppm measured after 1 or 2 weeks.
In test [4] the test system is Blumeria graminis. The test is described as follows: Fungicidal activity against Blumeria graminis infected compound pre-treated wheat plants assessed as disease preventive activity at 500 ppm measured after 1 or 2 weeks.
In test [5] the test system is Blumeria graminis. The test is described as follows: Fungicidal activity against Blumeria graminis infected compound pre-treated wheat plants assessed as disease preventive activity at 100 ppm measured after 1 or 2 weeks.

Consider `CCO/C(=N\OCc1ccccc1/C(=C\OC)C(=O)OC)c1cc(C(F)(F)F)cc(C(F)(F)F)c1`, for which the Activity came out at 60% in the test on Blumeria graminis [1]; 35% in the test on Blumeria graminis [2]; 90% in the test with Blumeria graminis [3]; 100% in the test on Blumeria graminis [4]; 100% with Blumeria graminis [5].
Turning to `CNC(=O)/C(=N/OC)c1ccccc1CO/N=C(\OC)c1cc(C(F)(F)F)cc(C(F)(F)F)c1`, the Activity in the test on Blumeria graminis [4] is 90%.
Turning to `CN/C(=N\OCc1ccccc1/C(=C\OC)C(=O)OC)c1cc(C(F)(F)F)cc(C(F)(F)F)c1`, the Activity was found to be 65% in the test with Blumeria graminis [1]; 25% in the test on Blumeria graminis [2]; 90% in the test with Blumeria graminis [3]; 100% with Blumeria graminis [4]; 100% with Blumeria graminis [5].
Take `CN/C(=N\OCc1ccccc1/C(=N\OC)C(=O)OC)c1cc(C(F)(F)F)cc(C(F)(F)F)c1`: the Activity in the test on Blumeria graminis [1] stood at 90%; in the test on Blumeria graminis [2], 70%; in the test with Blumeria graminis [3] it was 93%; in the test with Blumeria graminis [4] it was 100%; with Blumeria graminis [5] it was 100%.
With `CO/C=C(/C(=O)OC)c1ccccc1CO/N=C(\N)c1cc(C(F)(F)F)cc(C(F)(F)F)c1`, the Activity with Blumeria graminis [1] is 75%; in the test on Blumeria graminis [2], 40%; with Blumeria graminis [3], 90%; in the test on Blumeria graminis [4] it was 100%; in the test on Blumeria graminis [5] it was 95%.
Take `CO/N=C(/C(=O)OC)c1ccccc1CO/N=C(\N)c1cc(C(F)(F)F)cc(C(F)(F)F)c1`: the Activity with Blumeria graminis [4] was found to be 30%.
Take `CCO/C(=N\OCc1ccccc1/C(=N\OC)C(=O)OC)c1cc(C(F)(F)F)cc(C(F)(F)F)c1`: the Activity is listed as 50% with Blumeria graminis [1]; 15% in the test with Blumeria graminis [2]; 80% in the test on Blumeria graminis [3]; 100% in the test on Blumeria graminis [4]; 100% in the test with Blumeria graminis [5].
As for `CCS/C(=N\OCc1ccccc1/C(=C\OC)C(=O)OC)c1cc(C(F)(F)F)cc(C(F)(F)F)c1`, the Activity in the test on Blumeria graminis [4] is 85%.
On the same count and under the same terms, to `CCS/C(=N\OCc1ccccc1/C(=N\OC)C(=O)OC)c1cc(C(F)(F)F)cc(C(F)(F)F)c1` belongs 85%.
As for `CO/C=C(/C(=O)OC)c1ccccc1CO/N=C(\SC(C)C)c1cc(C(F)(F)F)cc(C(F)(F)F)c1`, in the test on Blumeria graminis [4], the Activity is on record as 85%.
The same measure, in the same setting: to `CO/N=C(/C(=O)OC)c1ccccc1CO/N=C(\SC(C)C)c1cc(C(F)(F)F)cc(C(F)(F)F)c1` belongs 85%; to `CO/C=C(/C(=O)OC)c1ccccc1CO/N=C(/c1cc(C(F)(F)F)cc(C(F)(F)F)c1)[S+](C)[O-]` (configuration not stated), 70%.
Regarding `CO/C=C(/C(=O)OC)c1ccccc1CO/N=C(/c1cc(C(F)(F)F)cc(C(F)(F)F)c1)S(C)(=O)=O`, in the test on Blumeria graminis [4], the Activity was 70%.
As to `CNC(=O)/C(=N/OC)c1ccccc1CO/N=C(\SC)c1cc(C(F)(F)F)cc(C(F)(F)F)c1`, the Activity in the test on Blumeria graminis [1] worked out at 25%; in the test with Blumeria graminis [3], 40%; with Blumeria graminis [4], 100%; in the test on Blumeria graminis [5], 100%.
As to `CO/N=C(/C1=NOCCO1)c1ccccc1CO/N=C(\SC)c1cc(C(F)(F)F)cc(C(F)(F)F)c1`, the Activity in the test on Blumeria graminis [1] is given as 10%; in the test on Blumeria graminis [3], 20%; in the test with Blumeria graminis [4], 100%; with Blumeria graminis [5] it was 100%.
For the compound `CO/N=C(/C(=O)OC)c1ccccc1CO/N=C(\SC)c1cc(C(F)(F)F)cc(C(F)(F)F)c1`, the Activity in the test on Blumeria graminis [4] amounted to 100%; in the test with Blumeria graminis [5], 80%.
As to `COC(=O)N(OC)c1ccccc1CO/N=C(\SC)c1cc(C(F)(F)F)cc(C(F)(F)F)c1`, the Activity is reported as 30% with Blumeria graminis [1], 65% in the test with Blumeria graminis [3], 90% in the test with Blumeria graminis [4] and 90% in the test on Blumeria graminis [5].
For the compound `CO/N=C(\C(=O)OC)c1ccccc1CO/N=C(\C)c1cccc(C(F)(F)F)c1`, the Activity with Blumeria graminis [1] was 98%; with Blumeria graminis [2], 75%; in the test with Blumeria graminis [3], 100%; in the test on Blumeria graminis [4] it was 100%; with Blumeria graminis [5], 100%.
